In BindingDB's records for doi:10.1016/j.chembiol.2009.01.014 (Duke University Medical Center, 2009):
pIC50: −log10 of the molar value. One block for each molecule: values may come before it.

Assays:
[1] = target: Protein farnesyltransferase/geranylgeranyltransferase type-1 subunit alpha / Protein farnesyltransferase subunit beta (Plasmodium falciparum, UniProt Q5EI73+Q5EI74); test: PfPFT IC50 Determination; conditions: pH 7.5; 37 °C
Experimental: Assays for PfPFT activity were performed with a PFT-specific scintillation assay (SPA) kit (Amersham Biosciences, Piscataway, NJ). An amount of 1 uM biotinylated lamin B peptide was used. The concentration of [3H]farnesyl pyrophosphate (FPP) was increased beyond manufacturer recommendations to 1 uM. IC50 values were calculated using linear regression analysis of the plots of [3H]FPP prenylation versus concentration of compounds.

[2] = target: Protein farnesyltransferase subunit beta/geranylgeranyltransferase type-1 subunit alpha (Homo sapiens, UniProt P49354+P49356); test: In Vitro PFT Activity Assay; conditions: pH 7.7; 30 °C
Experimental: In vitro inhibition assay of human PFT was done by measuring the incorporation of [3H] FPP (Amersham Biosciences, Piscataway, NJ) into wild type H-Ras (PFT). The 60,000g post-microsomal supernatant from Daudi cells was incubated in the presence of increasing concentration of compound, H-Ras substrate, and [3H] FPP. Samples were TCA-precipitated and then filtered onto glass fiber filters; unbound [3H] FPP was washed through the filters. Samples were counted on a scintillation counter and activity compared to vehicle controls to obtain IC50 values.

Protein farnesyltransferase/geranylgeranyltransferase type-1 subunit alpha / Protein farnesyltransferase subunit beta, sequence (Q5EI73 1-521): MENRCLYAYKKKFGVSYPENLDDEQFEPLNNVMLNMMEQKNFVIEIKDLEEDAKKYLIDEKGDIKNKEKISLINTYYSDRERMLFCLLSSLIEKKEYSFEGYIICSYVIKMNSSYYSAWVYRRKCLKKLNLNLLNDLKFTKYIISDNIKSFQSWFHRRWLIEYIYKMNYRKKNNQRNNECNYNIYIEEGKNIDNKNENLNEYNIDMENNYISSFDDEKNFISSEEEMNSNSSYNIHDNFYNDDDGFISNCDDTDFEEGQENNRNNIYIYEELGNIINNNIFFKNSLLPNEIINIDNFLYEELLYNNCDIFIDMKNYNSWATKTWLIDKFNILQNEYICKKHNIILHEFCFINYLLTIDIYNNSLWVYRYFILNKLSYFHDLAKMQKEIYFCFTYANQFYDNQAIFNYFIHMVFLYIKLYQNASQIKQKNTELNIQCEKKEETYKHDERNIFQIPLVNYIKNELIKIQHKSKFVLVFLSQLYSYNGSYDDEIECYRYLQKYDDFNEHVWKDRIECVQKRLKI
Protein farnesyltransferase/geranylgeranyltransferase type-1 subunit alpha / Protein farnesyltransferase subunit beta, sequence (Q5EI74 1-923): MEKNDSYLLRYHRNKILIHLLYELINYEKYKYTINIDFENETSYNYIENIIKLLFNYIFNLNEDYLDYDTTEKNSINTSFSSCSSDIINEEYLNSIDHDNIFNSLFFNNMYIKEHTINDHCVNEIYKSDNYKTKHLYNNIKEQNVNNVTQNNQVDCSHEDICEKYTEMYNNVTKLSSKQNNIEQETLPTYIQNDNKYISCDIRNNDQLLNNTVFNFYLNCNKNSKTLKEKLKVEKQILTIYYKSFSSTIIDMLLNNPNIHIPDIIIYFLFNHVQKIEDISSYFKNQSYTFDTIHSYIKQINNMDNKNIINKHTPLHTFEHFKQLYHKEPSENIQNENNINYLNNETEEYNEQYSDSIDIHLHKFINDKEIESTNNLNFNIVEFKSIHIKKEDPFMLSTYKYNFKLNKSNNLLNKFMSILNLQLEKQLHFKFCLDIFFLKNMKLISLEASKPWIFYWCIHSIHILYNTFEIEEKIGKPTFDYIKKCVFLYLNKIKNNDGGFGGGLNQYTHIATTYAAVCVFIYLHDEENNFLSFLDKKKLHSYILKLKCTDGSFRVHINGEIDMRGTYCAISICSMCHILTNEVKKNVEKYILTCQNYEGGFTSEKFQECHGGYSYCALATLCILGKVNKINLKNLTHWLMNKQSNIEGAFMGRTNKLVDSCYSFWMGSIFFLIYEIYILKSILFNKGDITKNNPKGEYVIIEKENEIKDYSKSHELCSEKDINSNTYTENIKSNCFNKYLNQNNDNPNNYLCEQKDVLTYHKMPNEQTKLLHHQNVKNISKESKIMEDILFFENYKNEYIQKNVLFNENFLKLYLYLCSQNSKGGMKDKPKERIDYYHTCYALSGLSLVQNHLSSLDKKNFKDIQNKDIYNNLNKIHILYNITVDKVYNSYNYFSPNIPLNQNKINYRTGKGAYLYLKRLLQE

SMILES: Cc1ccccc1S(=O)(=O)N(CCN(Cc1cncn1C)c1ccc(C#N)cc1)CC1CCN(C(=O)OC(C)(C)C)CC1 [ethylenediamine scaffold, 5]
pIC50 [1]: 8.52

SMILES: Cn1cnc(S(=O)(=O)N(CCN(Cc2cncn2C)c2ccc(C#N)cc2)CC2CCN(C(=O)OC(C)(C)C)CC2)c1 [ethylenediamine scaffold, 4]
pIC50 [1]: 8.92 | pIC50 [2]: 5.43

SMILES: Cc1ccccc1S(=O)(=O)N(CCN(Cc1cncn1C)c1ccc(C#N)cc1)Cc1ccccc1 [ethylenediamine scaffold, 7]
pIC50 [1]: 8.30 | pIC50 [2]: 6.80

SMILES: Cn1cncc1CN(CCN(CC1CCN(C(=O)OC(C)(C)C)CC1)S(=O)(=O)c1ccccc1-c1cccc(CCC(=O)O)c1)c1ccc(C#N)cc1 [ethylenediamine scaffold, 10]
pIC50 [1]: 7.15 | pIC50 [2]: 6.10

pIC50 [2]: 7.25
SMILES: Cn1cnc(S(=O)(=O)N(CCN(Cc2cncn2C)c2ccc(C#N)cc2)Cc2ccccc2)c1 [1-Methyl-1H-imidazole-4-sulfonic Acid Benzyl-{2-[(4-cyanophenyl)-(3-methyl-3H-imidazol-4-ylmethyl)amino]ethyl}amide]
